Results reported in patent US7217688B2, “Methods and compositions for derepression of IAP-inhibited caspase” (The Burnham Institute, priority 2005, dated 2007).
Square brackets hold non-standard residues; d marks the D form. Ends that are not written are not given here. * marks the point of attachment. Phe(4-Cl) = N[C@@H](Cc1ccc(Cl)cc1)C(=O)O; dPhe(4-Cl) = N[C@H](Cc1ccc(Cl)cc1)C(=O)O; dPhe(4-F) = N[C@H](Cc1ccc(F)cc1)C(=O)O; 2Nal = N[C@@H](Cc1ccc2ccccc2c1)C(=O)O; d2Nal = N[C@H](Cc1ccc2ccccc2c1)C(=O)O; Fmoc = O=C(OCC1c2ccccc2-c2ccccc21)*; 2Thi = N[C@@H](Cc1cccs1)C(=O)O; Cha = N[C@@H](CC1CCCCC1)C(=O)O

Key:
XIAP-inhibited caspase-3 = molecular target: T1, XIAP-inhibited caspase-3 (Homo sapiens, UniProt P98170); experiment: caspase derepression assay (XIAP-inhibited caspase-3, Ac-DEVD-AFC hydrolysis); type: biochemical; conditions: for Activity: Table XIV, XIAP derepression assay; for LC (lowest concentration with a ratio of 2 or higher in the derepression assay): tested at 0.4, 2, 10 and 50 micrograms per milliliter; for reversing XIAP-mediated suppression of caspase 3: 50 μg/ml, full length XIAP
T1 construct: in the derepression assay using full length XIAP; made in house; host or cells: bacteria
Protocol: Caspase activity was assayed by release of 7-amino-4-trifluoromethyl-coumarin (AFC) from Ac-DEVD-AFC synthetic peptide using a Molecular Devices Spectromax 340 (see Zhou et al., J. Biol. Chem. 272:7797–7800 (1997)). […] The ratio of Vmax for hydrolysis of Ac-DEVD-AFC in the presence and absence of the candidate mixture was calculated and used to identify those that contain an agent that derepresses an IAP-inhibited caspase.
Screening of each mixture from the DCR390, TPI 1239 or TPI 1328 library, respectively, using the above described assay was carried out as follows. Each mixture was aliquoted in a 25 microliter volume and in duplicate to a well of a 96 well microtiter plate. […] Fluorescence of liberated AFC was immediately detected from each well for 30 minutes at 30 second intervals. The Vmax for hydrolysis of AC-DEVD-AFC from each well was measured using the softmax software package. Results of the screen for the DCR390 library are shown in Table I. Sets of mixtures having the same position fixed with different respective amino acids are arranged in 6 sections identified with the position number. […] The mixture in each section are arranged in descending order according to apparent velocity in the second column.
Briefly, recombinant proteins were produced in bacteria and purified as described, for example, in Deveraux et al., Nature 388:300–304(1997). […] Generation of fluorogenic AFC (7-amino-4-trifluoromethyl coumarin) product was measured with a spectrofluorometric plate reader in kinetic mode for 30 minutes at 37° C. using excitation and emission wavelengths of 405 nm and 510 nm, respectively. […] Control reactions lacked XIAP, and all assays were conducted in the linear range of substrate hydrolysis to avoid substrate depletion artifacts.

Jurkat leukemia cells = experiment: Jurkat cell death (Annexin V / propidium iodide flow cytometry); type: cell-based; conditions: micromolar concentrations, compared to DMSO control
Protocol: The following assay was used to test the ability of individual compounds from the TPI 1396 and TPI 1391 libraries to induce apoptosis of cultured tumor cell lines. Each of the compounds listed in Table IX was individually added to Jurkat leukemia cells (6.25×10^5 cells/mL) in RPMI containing 2.5% FBS at various concentrations for 20 hours. After incubation, cells were washed and stained with FITC-conjugated Annexin V antibody and propidium iodide (Biovision; Mountain View, Calif.). Cells were incubated for 20 minutes at room temperature in the dark and fluorescence was measured by flow cytometry (FACScan, Immunocytometry system; Becton-Dickinson; San Jose, Calif.). Cells staining positive for Annexin V were deemed non-viable.

T1 sequence (P98170 whole entry): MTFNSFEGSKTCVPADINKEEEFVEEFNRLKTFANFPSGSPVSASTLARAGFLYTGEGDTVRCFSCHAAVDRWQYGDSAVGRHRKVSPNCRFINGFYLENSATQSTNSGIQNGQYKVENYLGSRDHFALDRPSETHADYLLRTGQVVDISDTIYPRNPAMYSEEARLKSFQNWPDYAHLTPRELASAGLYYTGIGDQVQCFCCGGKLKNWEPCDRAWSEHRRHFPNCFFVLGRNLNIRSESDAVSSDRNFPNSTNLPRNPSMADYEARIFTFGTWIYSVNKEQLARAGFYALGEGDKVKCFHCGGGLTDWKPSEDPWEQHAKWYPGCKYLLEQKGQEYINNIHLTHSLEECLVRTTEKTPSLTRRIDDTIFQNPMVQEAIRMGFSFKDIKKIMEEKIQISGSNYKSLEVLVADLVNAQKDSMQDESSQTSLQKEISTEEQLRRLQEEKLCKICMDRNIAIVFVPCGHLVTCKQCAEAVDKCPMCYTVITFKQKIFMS

| Compound | Activity (XIAP-inhibited caspase-3) [µM] | LC (lowest concentration with a ratio of 2 or higher in the derepression assay) (XIAP-inhibited caspase-3) [µg/mL] | other results |
| --- | --- | --- | --- |
| CCNC(=O)NC[C@@H](CC1CCCCC1)N(C[C@@H]1CCCN1CCc1ccc(OC)cc1)C(=O)NCC [TPI 1572-20] | 235 |  |  |
| COc1ccc(CCN2CCC[C@H]2CN(C(=O)Nc2ccc(C)cc2)[C@@H](CNC(=O)Nc2ccc(C)cc2)CC2CCCCC2)cc1 [TPI 1572-21] | 69 |  |  |
| COc1ccc(CCN2CCC[C@H]2CN(C(=O)Nc2ccc(F)cc2)[C@@H](CNC(=O)Nc2ccc(F)cc2)CC2CCCCC2)cc1 [TPI 1572-22] | 79 |  |  |
| COc1ccc(CCN2CCC[C@H]2CN(C(=O)Nc2ccc([N+](=O)[O-])cc2)[C@@H](CNC(=O)Nc2ccc([N+](=O)[O-])cc2)CC2CCCCC2)cc1 [TPI 1572-23] | 94 |  |  |
| COc1ccc(CCN2CCC[C@@H]2CN(C)[C@H](C)CNC(=O)Nc2ccccc2)cc1 [TPI 1577-1] | 252 |  |  |
| COc1ccc(CCN2CCC[C@@H]2CN(C)CCNC(=O)Nc2ccccc2)cc1 [TPI 1577-2] | 157 |  |  |
| COc1ccc(CCN2CCC[C@@H]2CN(C)[C@@H](CNC(=O)Nc2ccccc2)CC(C)C)cc1 [TPI 1577-3] | >241 |  |  |
| CN(C[C@H]1CCCN1CCc1ccccc1)[C@@H](CNC(=O)Nc1ccccc1)CC1CCCCC1 [TPI 1577-6] | 113 |  |  |
| CN(C[C@H]1CCCN1CCc1ccc(F)cc1)[C@@H](CNC(=O)Nc1ccccc1)CC1CCCCC1 [TPI 1577-7] | 71 |  |  |
| Cc1ccc(CCN2CCC[C@@H]2CN(C)[C@@H](CNC(=O)Nc2ccccc2)CC2CCCCC2)cc1 [TPI 1577-8] | 88 |  |  |
| COc1ccc(CCN2CCC[C@@H]2CN(C)[C@@H](CNC(=O)Nc2ccc3ccccc3c2)CC2CCCCC2)cc1 [TPI 1577-9] | 23 |  | ability to induce apoptosis in Jurkat cells (Jurkat leukemia cells): capable of inducing apoptosis |
| (L-Ala)-(D-Trp)-(L-Trp)-(L-ThiAla) (A[dW]W[2Thi]) [TPI 1332-47] |  |  | reversing XIAP-mediated suppression of caspase 3 (XIAP-inhibited caspase-3): Active |
| (L-Ala)-(L-Trp)-(L-Trp)-(L-ThiAla) (AWW[2Thi]) [TPI 1332-1] |  |  | reversing XIAP-mediated suppression of caspase 3 (XIAP-inhibited caspase-3): Active |
| (L-Cha)-(D-Na1)-(L-Trp)-(L-ThiAla) ([Cha][d2Nal]W[2Thi]) [TPI 1332-41] |  |  | reversing XIAP-mediated suppression of caspase 3 (XIAP-inhibited caspase-3): Active |

Further lines, with some results ahead:

| Activity (XIAP-inhibited caspase-3) [µM] | LC (lowest concentration with a ratio of 2 or higher in the derepression assay) (XIAP-inhibited caspase-3) [µg/mL] | Compound | other results |
| --- | --- | --- | --- |
|  | 10 | (D-Nal)-(D-pClPhe)-(L-pC1Phe)-(Lys-εFmoc) ([d2Nal][dPhe(4-Cl)][Phe(4-Cl)]K(Fmoc)) [TPI 792-9] |  |
|  | 2 | (D-Nal)-(L-Nal)-(D-Lys-εFmoc)-(Lys-εFmoc) ([d2Nal][2Nal][dK](Fmoc)K(Fmoc)) [TPI 792-17] |  |
|  | 2 | (D-Nal)-(L-Nal)-(L-pClPhe)-(Lys-εFmoc) ([d2Nal][2Nal][Phe(4-Cl)]K(Fmoc)) [TPI 792-15] |  |
|  | 2 | (D-Nal)-(Lys-εFmoc)-(L-pClPhe)-(Lys-εFmoc) ([d2Nal]K(Fmoc)[Phe(4-Cl)]K(Fmoc)) [TPI 792-3] |  |
|  | 2 | (L-ThiAla)-(D-pClPhe)-(L-pClPhe)-(Lys-εFmoc) ([2Thi][dPhe(4-Cl)][Phe(4-Cl)]K(Fmoc)) [TPI 792-27] |  |
|  | 2 | (L-ThiAla)-(Lys-εFmoc)-(D-Nal)-(Lys-εFmoc) ([2Thi]K(Fmoc)[d2Nal]K(Fmoc)) [TPI 792-19] |  |
|  | 2 | (L-ThiAla)-(Lys-εFmoc)-(L-pClPhe)-(pF-D-F) ([2Thi]K(Fmoc)[Phe(4-Cl)][dPhe(4-F)]) [TPI 792-22] |  |
